Data on 9 molecules can be found in patent USRE38425E1, “Semicarbazones having CNS activity and pharmaceutical preparations containing same” (University of Saskatchewan Technologies, Inc., priority 1995, dated 2004).

The test system of one series is kindled rat. Kind of series: kindled rat test (corneal kindled rat screen). In kind it is in vivo, rats. Conditions: for protection in the corneal kindled rat screen: in vivo; for ED50: Rattus norvegicus, read-out: ED50 (dose required to reduce seizures from stage 5 to stage 3 or less). The source says:
Particularly preferred compounds according to the present invention are 4-(4′-fluorophenoxy)benzaldehyde semicarbazone and 4-(thiophenoxy)benzaldehyde semicarbazone. […] Incidentally, the kindled rat screen is described by R. J. Racine in “Modification of Seizure Activity by Electrical Stimulation. II. Motor Seizure”, Electroencephalogr.Clin.Neurophysiol., 1972, 32, 281-294, and by G. Skeen et al. In “Development of Kindled Seizures Following Electrical Stimulation via the Cornea”, Soc.Neurosci., 1990, 16(1), 307; the disclosures of which are incorporated herein by reference.
The kindled rat test was undertaken by reported procedures (as indicated above). Compound 4b was administered orally and the animals challenged with electrical stimuli 2h later. The ED50 is the dose required to reduce seizures from stage 5 to stage 3 or less and these stages are described as follows namely stage 1 is mouth and facial clonus, stage 2 is stage 1 plus head nodding, stage 3 is stage 2 plus forelimb clonus, stage 4 is stage 3 plus rearing and stage 5 is stage 4 plus repeated rearing and falling.

In series [1] the test system is rats. The series is described as follows: MES screen after oral administration to rats. Conditions: for ED50: Rattus norvegicus, po; for MES screen: number of rats out of 4 which were protected: oral administration to rats.
Procedure: The majority of the compounds were examined for oral activity in rats. Initially doses of 50 mg/kg of the semicarbazones were administered.
Evaluation of most of the semicarbazones and analogs in the MES and neurotoxicity tests after oral administration to rats was performed.
Series [2] concerns mice. Kind of series: MES screen after intraperitoneal injection in mice. In kind it is in vivo. Conditions: time t (h) per compound as in the table; for ED50: Mus musculus, ip.
The test system of series [3] is mice. Conditions: intraperitoneal injection in mice; time t (h) per compound as in the table.
Procedure: An initial anticonvulsant evaluation of the compounds prepared according to Example 1 was undertaken by administering the compounds by the intraperitoneal route to mice. Protection and/or neurotoxicity was noted 0.5 and 4 hours after administering doses of 30, 100 and 300 mg/kg of each semicarbazone to the animals.
Doses of 30, 100 and 300 mg/kg were injected by the intraperitoneal route into mice and evaluated in the MES, scPTZ and neurotoxicity screens one half and four hours after administration.
In series [4] the test system is rats. The series is described as follows: neurotoxicity screen after oral administration to rats. Conditions: oral administration to rats; time t (h) per compound as in the table.
Procedure: (§1) Initially doses of 50 mg/kg of the semicarbazones were administered.
Series [5] relates to mice.
Another series concerns epileptic chicken. Kind of series: epileptic chicken model (intermittent photic stimulation). The format is in vivo. Conditions: convulsions induced by intermittent photic stimulation. The source says: Two series of compounds were examined with the aim of observing whether oxygen or sulfur is a preferable spacer atom between the two aryl rings and also to compare the ED50 figures with those obtained in the rat oral and mouse intraperitoneal screens.

The next series is described as follows: in vivo. The note with it: rat, po.
Series [6] has as its system rats. Conditions: rat, in vivo, po.
Procedure: as §1
[7] abbreviates: read-out: MES screen ED50 (mg/kg).
Setting [8] is: intraperitoneal injection in mice, read-out: MES screen ED50.
Where [9] appears, read: intraperitoneal injection in mice.
Where [10] appears, read: intraperitoneal injection in mice, time t (h) per compound as in the table.

Values joined by “and” are separate entries in the source; they are usually repeats but may differ in a detail not shown here. Identical values can stand only once. Like-named read-outs stand apart in the source and are kept apart here.

Procedure for in vivo: as §1

Take `NC(=O)NN=Cc1ccc(Oc2ccc(F)cc2)cc1` [4-(4′-fluorophenoxy)benzaldehyde semicarbazone]: in the series with kindled rat, the “protection in the corneal kindled rat screen” value is listed as “afford protection”.
For `NC(=O)NN=Cc1ccc(Sc2ccccc2)cc1` [4-(thiophenoxy)benzaldehyde semicarbazone], the “protection in the corneal kindled rat screen” value with kindled rat is reported as “afford protection”.
For the molecule `NC(=O)N1c2ccccc2C=Cc2ccccc21` [Carbamazepine, reference compound], the ED50 came out at 3.57 mg/kg in the series on rats [1] (setting [7]), 9.85 mg/kg with mice [2] (setting [8]) and 28.9 mg/kg in the series on kindled rat. Also, the “acPTZ screen ED50” value in the series on mice [3] is above 50 mg/kg. For the same molecule, the “neurotoxicity screen TD50” value is listed as 361 mg/kg with rats [4] and 47.8 mg/kg in the series with mice [5] (mouse, in vivo, ip). Also, in the series with mice [5] (mouse, in vivo, 0.5 h), the “toxicity screen 0.5 h: minimum dose whereby bioactivity was demonstrated in half or more of the mice” value came out at 100 mg/kg. Besides, the “toxicity screen: minimum dose whereby bioactivity was demonstrated in half or more of the mice” value in the series with mice [5] (mouse, in vivo, 0.5 h) is recorded as 100 mg/kg; with mice [5] (mouse, in vivo, 4 h), 300 mg/kg. For the same molecule, the “toxicity screen 4 h: minimum dose whereby bioactivity was demonstrated in half or more of the mice” value in the series on mice [5] (mouse, in vivo, 4 h) is listed as 300 mg/kg.
As for `NC(=O)NN=Cc1ccc(Sc2ccccc2)cc1` [Compound 15a], the “MES screen: number of rats out of 4 which were protected” value (from here on “MES screen: number”) in the series with rats [1] (dose 50 mg/kg, 0.5 h) is given as 4; in the series on rats [1] (dose 50 mg/kg, 1 h) it was 4; in the series on rats [1] (dose 50 mg/kg, 2 h), 4; in the series on rats [1] (dose 50 mg/kg, 4 h) it was 4. The “MES screen ED50” value in the series on mice [2] (setting [9]) is 15.62 mg/kg. Besides, the “acPTZ screen ED50” value in the series on mice [3] is reported as above 46 mg/kg. The figures for the “neurotoxicity screen TD50” value in the series on rats [4] and in the series with mice [5] (setting [10]) were above 496 mg/kg and 181.00 mg/kg, respectively. The “ED50 in the epileptic chicken model” value in the series on epileptic chicken came out at 2.5 mg/kg.
Regarding `NC(=O)NN=Cc1ccc(Sc2ccc(F)cc2)cc1` [Compound 16a], the “MES screen: number” value in the series with rats [1] (dose 12.5 mg/kg, 0.25 h) is on record as 1; in the series on rats [1] (dose 12.5 mg/kg, 0.5 h) it was 3; with rats [1] (dose 12.5 mg/kg, 1 h), 4; with rats [1] (dose 12.5 mg/kg, 2 h), 4; in the series on rats [1] (dose 12.5 mg/kg, 4 h), 4. The “MES screen ED50” value in the series on mice [2] (setting [9]) was found to be 12.37 mg/kg. In the series on mice [3], the “acPTZ screen ED50” value is on record as above 120 mg/kg. Besides, the “neurotoxicity screen TD50” value in the series on rats [4] amounted to 183.05 mg/kg; with mice [5] (setting [10]), 88.00 mg/kg. Besides, the “ED50 in the epileptic chicken model” value in the series with epileptic chicken worked out at 1.5 mg/kg.
Take `NC(=O)NN=Cc1ccc(Sc2ccc(Cl)cc2)cc1` [Compound 16b]: the “MES screen: number” value in the series with rats [1] (dose 50 mg/kg, 0.25 h) was 1; in the series with rats [1] (dose 50 mg/kg, 0.5 h), 4; in the series with rats [1] (dose 50 mg/kg, 1 h) it was 4; in the series on rats [1] (dose 50 mg/kg, 2 h) it was 4; in the series on rats [1] (dose 50 mg/kg, 4 h), 4. Also, the “MES screen ED50” value with mice [2] (setting [9]) is recorded as 16.22 mg/kg. The “acPTZ screen ED50” value with mice [3] is recorded as above 120 mg/kg. Moreover, the “ED50 in the epileptic chicken model” value in the series on epileptic chicken is 1.0 mg/kg. The “neurotoxicity screen TD50” value in the series on mice [5] (setting [10]) is given as 53.18 mg/kg.
Regarding `NC(=O)NN=Cc1ccc(Sc2ccc(Br)cc2)cc1` [Compound 16c], the “MES screen: number” value with rats [1] (dose 12.5 mg/kg, 0.25 h) was 0; with rats [1] (dose 12.5 mg/kg, 0.5 h), 1; with rats [1] (dose 12.5 mg/kg, 1 h), 3; with rats [1] (dose 12.5 mg/kg, 2 h) it was 4; in the series on rats [1] (dose 12.5 mg/kg, 4 h) it was 4. Also, the “MES screen ED50” value in the series on mice [2] (setting [9]) worked out at 24.37 mg/kg. Besides, the “acPTZ screen ED50” value in the series on mice [3] is above 200 mg/kg. Further, in the series with epileptic chicken, the “ED50 in the epileptic chicken model” value came out at 1.5 mg/kg. Moreover, the “neurotoxicity screen TD50” value in the series on mice [5] (setting [10]) is given as 122.57 mg/kg.
Regarding `O=C1NC(=O)C(c2ccccc2)(c2ccccc2)N1` [Phenytoin, reference compound], the ED50 in the series on rats [1] (setting [7]) was 23.2 mg/kg; in the series with mice [2] (setting [8]), 6.32 mg/kg; with kindled rat, above 100 mg/kg. In “in vivo”, the TD50 was above 500 mg/kg. Further, in the series with mice [2] (setting [9]), the “MES screen ED50” value is recorded as 6.48 mg/kg. Besides, the “acPTZ screen ED50” value in the series with mice [3] is given as above 50 mg/kg. Also, the “neurotoxicity screen TD50” value in the series with mice [5] (setting [10]) is 41.23 mg/kg and 42.8 mg/kg. Besides, the “toxicity screen 0.5 h: minimum dose whereby bioactivity was demonstrated in half or more of the mice” value in the series with mice [5] (mouse, in vivo, 0.5 h) was found to be 100 mg/kg. For the same molecule, the “toxicity screen: minimum dose whereby bioactivity was demonstrated in half or more of the mice” value was 100 mg/kg in the series on mice [5] (mouse, in vivo, 0.5 h) and 100 mg/kg in the series with mice [5] (mouse, in vivo, 4 h). For the same molecule, in the series with mice [5] (mouse, in vivo, 4 h), the “toxicity screen 4 h: minimum dose whereby bioactivity was demonstrated in half or more of the mice” value worked out at 100 mg/kg.
As for `CCCC(CCC)C(=O)O` [Valproic acid, reference compound], the ED50 with rats [1] (read-out: MES screen ED50 (mg/kg), oral administration to rats, time t (h) per compound as in the table) stood at 395 mg/kg; in the series with mice [2] (read-out: MES screen ED50 (mg/kg), intraperitoneal injection in mice) it was 287 mg/kg; in the series on kindled rat, 117 mg/kg. For the same molecule, the “neurotoxicity screen TD50” value with rats [6] is on record as 859 mg/kg. For the same molecule, the “acPTZ screen ED50” value with mice [3] was 209 mg/kg.
